Here are results for twelve compounds from ChEMBL document CHEMBL3826938, “Synthesis and biological evaluation of Oblongifolin C derivatives as c-Met inhibitors” (Bioorg Med Chem, 2016).

Active and inactive are the calls of the source. The rule behind the calls is not given here.

In one data set the test system is HepG2. Put plainly: Cytotoxicity against human HepG2 cells assessed as growth inhibition after 72 hrs by MTT assay. The following applies: HepG2, 72 h. (Formazan colour is commonly taken as a measure of viable cells.)
Data set [1] can be described thus: Cytotoxicity against human MIAPaCa2 cells assessed as growth inhibition after 72 hrs by MTT assay. The settings on record: MIA PaCa-2, 72 h.
The nature of data set [2]: Cytotoxicity against human HCC827 cells assessed as growth inhibition after 72 hrs by MTT assay. The following applies: HCC827, 72 h.
A further data set deals with AGS. In words: Cytotoxicity against human AGS cells assessed as growth inhibition after 72 hrs by MTT assay.
Another data set deals with A549. Put plainly: Cytotoxicity against human A549 cells assessed as growth inhibition after 72 hrs by MTT assay. The following applies: A549, 72 h.
The subject of the next data set is HeLa. Put plainly: Cytotoxicity against human HeLa cells assessed as growth inhibition after 72 hrs by MTT assay.
A further data set has as its system HT-29. Put plainly: Cytotoxicity against human HT-29 cells assessed as growth inhibition after 72 hrs by MTT assay. The following applies: HT-29, 72 h.
A further data set deals with HCC827. Put plainly: Antimigratory activity against human HCC827 cells at 2.5 to 10 uM after 24 hrs by crystal violet staining based transwell chamber assay. In kind it is functional, cell-based.
A short description of data set [3]: Solubility of compound in water. In kind it is physicochemical. The settings on record: buffer.
The target in data set [4] is Hepatocyte growth factor receptor (Homo sapiens, UniProt P08581). In words: Inhibition of c-MET (unknown origin) by caliper mobility shift assay.
Hepatocyte growth factor receptor, sequence (P08581 whole entry): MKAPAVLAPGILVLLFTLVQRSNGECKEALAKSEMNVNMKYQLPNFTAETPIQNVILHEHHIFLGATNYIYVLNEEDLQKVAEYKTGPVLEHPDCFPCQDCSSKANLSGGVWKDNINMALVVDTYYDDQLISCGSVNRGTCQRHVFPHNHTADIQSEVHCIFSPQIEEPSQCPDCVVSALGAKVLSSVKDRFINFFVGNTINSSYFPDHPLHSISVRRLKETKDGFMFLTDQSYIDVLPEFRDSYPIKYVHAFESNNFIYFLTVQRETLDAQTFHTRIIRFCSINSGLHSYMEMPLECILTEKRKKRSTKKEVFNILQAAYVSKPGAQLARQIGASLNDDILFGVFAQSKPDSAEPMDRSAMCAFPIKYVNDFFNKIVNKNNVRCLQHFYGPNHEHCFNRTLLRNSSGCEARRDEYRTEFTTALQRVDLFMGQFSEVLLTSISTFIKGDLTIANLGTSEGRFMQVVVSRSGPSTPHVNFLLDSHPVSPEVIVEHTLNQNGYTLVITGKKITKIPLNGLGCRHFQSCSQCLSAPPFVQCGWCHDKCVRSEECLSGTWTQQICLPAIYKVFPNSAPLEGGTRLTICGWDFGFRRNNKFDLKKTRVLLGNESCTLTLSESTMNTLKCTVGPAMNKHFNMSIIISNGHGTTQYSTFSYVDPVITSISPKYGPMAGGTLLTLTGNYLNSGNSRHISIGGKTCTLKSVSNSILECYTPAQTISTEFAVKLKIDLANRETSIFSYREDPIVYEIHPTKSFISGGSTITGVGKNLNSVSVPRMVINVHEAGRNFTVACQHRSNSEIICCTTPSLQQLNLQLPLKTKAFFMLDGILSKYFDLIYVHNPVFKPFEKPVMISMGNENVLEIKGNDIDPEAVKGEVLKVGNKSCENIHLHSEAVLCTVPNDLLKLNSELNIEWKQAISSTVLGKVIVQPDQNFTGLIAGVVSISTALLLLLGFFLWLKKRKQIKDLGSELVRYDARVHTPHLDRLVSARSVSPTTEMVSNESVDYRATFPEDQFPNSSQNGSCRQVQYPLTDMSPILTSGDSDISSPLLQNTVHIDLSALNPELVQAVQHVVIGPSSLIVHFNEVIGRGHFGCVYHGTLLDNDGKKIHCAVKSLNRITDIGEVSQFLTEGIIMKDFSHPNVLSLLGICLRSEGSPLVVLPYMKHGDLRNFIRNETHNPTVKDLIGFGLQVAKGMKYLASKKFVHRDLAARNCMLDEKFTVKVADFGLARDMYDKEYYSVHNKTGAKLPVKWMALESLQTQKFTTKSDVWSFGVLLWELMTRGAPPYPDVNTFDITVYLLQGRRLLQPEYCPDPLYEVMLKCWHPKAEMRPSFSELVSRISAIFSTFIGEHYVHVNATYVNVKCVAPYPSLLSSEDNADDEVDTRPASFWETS

For orientation: IC50 means the concentration at which inhibition is half-maximal.

For the compound `CC(C)=CCC/C(C)=C/C[C@@H]1C[C@@]2(CC=C(C)C)C(=O)C3=C(OC4C=C(O)C(=O)C=C4C3=O)[C@](CC=C(C)C)(C2=O)[C@@]1(C)CCC=C(C)C` (some centres not stated), the IC50 in the data set on HepG2 was found to be 3.47 µM; in data set [1], 2.78 µM; in [2], 4.56 µM; in the data set on AGS, 7.72 µM; with A549, 9.84 µM; with HeLa it was 6.82 µM. Also, the IC50 with HT-29 came to 9.22 µM. In addition, in the data set on HCC827, the outcome was Active.
Turning to `CC(=O)Oc1cc(C(=O)C2=C(O)[C@]3(CC=C(C)C)C[C@@H](C/C=C(\C)CCC=C(C)C)[C@](C)(CCC=C(C)C)[C@](CC=C(C)C)(C2=O)C3=O)ccc1O`, the concentration for half-maximal inhibition (IC50) in the data set on HepG2 was over 20 µM; in data set [1], 15.4 µM; in data set [2] it was over 20 µM; in the data set on AGS, 8.09 µM; with A549, 7.66 µM; in the data set on HeLa it was 8.97 µM. Besides, the concentration for half-maximal inhibition (IC50) in the data set with HT-29 amounted to 10.2 µM.
In the case of `CC(C)=CCC/C(C)=C/C[C@@H]1C[C@]2(CC=C(C)C)C(=O)[C@@](CC=C(C)C)(C(=O)C(C(=O)c3ccc(OCC(=O)O)c(OCC(=O)O)c3)=C2O)[C@@]1(C)CCC=C(C)C`, the solubility entry in data set [3] is “soluble”. In addition, the IC50 (in the data set with HepG2; in data set [1]; in data set [2]; in the data set on AGS; in the data set with A549; with HeLa) was over 20 µM each time. In addition, the IC50 in the data set on HT-29 is over 20 µM.
For `COC(=O)COc1ccc(C(=O)C2=C(O)[C@]3(CC=C(C)C)C[C@@H](C/C=C(\C)CCC=C(C)C)[C@](C)(CCC=C(C)C)[C@](CC=C(C)C)(C2=O)C3=O)cc1OCC(=O)O`, the solubility result in [3] was “soluble”. For the same compound, the IC50 (in the data set on HepG2; in [1]; in data set [2]; with AGS; in the data set on A549; in the data set with HeLa) was over 20 µM in each case. The IC50 in the data set with HT-29 was over 20 µM.
Regarding `COC(=O)COc1cc(C(=O)C2=C(O)[C@]3(CC=C(C)C)C[C@@H](C/C=C(\C)CCC=C(C)C)[C@](C)(CCC=C(C)C)[C@](CC=C(C)C)(C2=O)C3=O)ccc1OCC(=O)O`, in data set [3], the solubility entry was “soluble”. The IC50 (in the data set on HepG2; in data set [1]; in data set [2]; in the data set on AGS; with A549; with HeLa) was over 20 µM each time. The half-inhibitory concentration (IC50) with HT-29 was over 20 µM.
With `C[C@@H](Oc1cc(-c2cnn(C3CCNCC3)c2)cnc1N)c1c(Cl)ccc(F)c1Cl` [CRIZOTINIB], the IC50 in the data set with HepG2 is 3.7 µM; in data set [1] it was 7.16 µM; in data set [2], 7.25 µM.
`CC(C)=CCC/C(C)=C/C[C@@H]1C[C@]2(CC=C(C)C)C(=O)[C@@](CC=C(C)C)(C(=O)C(OC(=O)c3ccc(O)c(O)c3)=C2O)[C@@]1(C)CCC=C(C)C`: the concentration for half-maximal inhibition (IC50) in the data set with HepG2 was over 20 µM; in data set [1] it was over 20 µM; in data set [2], over 20 µM; in the data set with AGS, 10.2 µM; in the data set with A549, 13.1 µM; with HeLa, 15.1 µM. The half-inhibitory concentration (IC50) in the data set on HT-29 was 16.3 µM.
As for `CC(=O)Oc1ccc(C(=O)C2=C(O)[C@]3(CC=C(C)C)C[C@@H](C/C=C(\C)CCC=C(C)C)[C@](C)(CCC=C(C)C)[C@](CC=C(C)C)(C2=O)C3=O)cc1OC(C)=O`, the IC50 was over 20 µM with HepG2; over 20 µM in data set [1]; over 20 µM in [2]; 15.7 µM in the data set on AGS; 16.6 µM with A549; 13.3 µM in the data set with HeLa. For the same compound, the IC50 in the data set on HT-29 came out at 12.2 µM.
For the compound `CC(C)=CCC/C(C)=C/C[C@@H]1C[C@]2(CC=C(C)C)C(=O)[C@@](CC=C(C)C)(C(=O)C(C(=O)c3ccc(O)c(OC(=O)CCCC[C@@H]4SCC5NC(=O)NC54)c3)=C2O)[C@@]1(C)CCC=C(C)C` (some centres not stated), the IC50 was found to be 14.6 µM in the data set with HepG2; 11.7 µM in data set [1]; 12.1 µM in [2]; 12.2 µM in the data set on AGS; 11.3 µM in the data set on A549; 12.7 µM in the data set with HeLa. For the same compound, the 50% inhibitory concentration (IC50) in the data set on HT-29 was 18.2 µM.
As to `CC(C)=CCC/C(C)=C/C[C@@H]1C[C@]2(CC=C(C)C)C(=O)[C@@](CC=C(C)C)(C(=O)C3=C2OC2C=C(O)C(=O)C=C2C3=O)[C@@]1(C)CCC=C(C)C` (some centres not stated), the concentration for half-maximal inhibition (IC50) in the data set on HepG2 is 14.3 µM; in data set [1] it was 9.88 µM; in data set [2], over 20 µM; with AGS it was 7.84 µM; in the data set with A549, 13.1 µM; with HeLa, 10.3 µM. Further, the IC50 in the data set on HT-29 worked out at 16.9 µM. In addition, the result in the data set on HCC827 was Active.
As for `CC(C)=CCC/C(C)=C/C[C@@H]1C[C@]2(CC=C(C)C)C(=O)[C@@](CC=C(C)C)(C(=O)C(Cc3ccc(O)c(O)c3)=C2O)[C@@]1(C)CCC=C(C)C`, the IC50 (in [4]; in the data set on HepG2; in [1]; in data set [2]; with AGS; in the data set with A549) was over 20 µM throughout. The 50% inhibitory concentration (IC50) in the data set on HeLa and with HT-29 was over 20 µM each time.
`CC(C)=CCC/C(C)=C/C[C@@H]1C[C@]2(CC=C(C)C)C(=O)[C@@](CC=C(C)C)(C(=O)C(C(=O)c3ccc(O)c(O)c3)=C2O)[C@@]1(C)CCC=C(C)C` [OBLONGIFOLIN C]: the IC50 in data set [4] was determined as 7.77 µM; in the data set with HepG2, 13 µM; in data set [1], 4.46 µM; in data set [2], 9.2 µM; in the data set on AGS it was 4.58 µM; in the data set with A549 it was 4.29 µM. Besides, the IC50 turned out to be 5.83 µM with HeLa and 6.74 µM in the data set with HT-29.
